This is an account of results in US9867833B2, “Serine/threonine kinase inhibitors” (GENENTECH, INC., priority 2013, dated 2018).

The target of this experiment is human ERK-2 (Mitogen Activated Kinase 1) (Homo sapiens (Human), UniProt P28482). Briefly: ERK-2 Enzymatic Assay. The class given is biochemical. The following applies: human ERK-2 enzyme 5 nM, 25 μM ATP, S/T17 peptide substrate; isomer = configuration of CR2R3. As to the method: Compounds were tested in an enzymatic assay using human ERK-2 (Mitogen Activated Kinase 1), recombinantly expressed as an n-terminal 6-His fusion protein in E. coli and corresponding to aa 8-360. […] Test compounds were diluted in DMSO in 3-fold serial dilutions at 100× final concentrations. […] The data collected from each well was fit to a straight line, and the resulting rates were used to calculate percent of control. Percent of control was plotted against compound concentration, and IC50 values were determined using a four-parameter fit.
human ERK-2 (Mitogen Activated Kinase 1), sequence (P28482 8-360): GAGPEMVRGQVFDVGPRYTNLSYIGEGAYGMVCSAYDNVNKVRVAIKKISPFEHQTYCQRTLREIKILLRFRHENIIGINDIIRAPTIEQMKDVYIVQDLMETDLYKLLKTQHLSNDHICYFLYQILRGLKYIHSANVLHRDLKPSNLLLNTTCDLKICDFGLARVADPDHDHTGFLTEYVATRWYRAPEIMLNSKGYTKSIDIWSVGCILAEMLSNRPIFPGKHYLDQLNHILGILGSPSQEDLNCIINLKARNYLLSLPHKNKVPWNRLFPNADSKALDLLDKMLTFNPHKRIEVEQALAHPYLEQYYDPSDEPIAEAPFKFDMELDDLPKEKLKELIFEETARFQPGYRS

In the case of `Cn1nccc1Nc1cc(-c2cc3n4c(nnc4c2)[C@H](c2ccccc2)CN3)ccn1` (single isomer, unassigned) [(R) I-4, N-(1-methyl-1H-pyrazol-5-yl)-4-(3-phenyl-4,5-dihydro-3H-1,2,2a^1,5-tetraazaacenaphthylen-7-yl)pyridin-2-amine], the IC50 (usually the concentration needed to halve the response being measured) turned out to be 43.1 nM.

On to `Cn1nccc1Nc1cc(-c2cc3n4c(nnc4c2)C(Cc2ccccc2Cl)CCO3)ccn1` (single isomer, unassigned) [(R) I-30, 4-(9-(2-chlorobenzyl)-8,9-dihydro-7H-6-oxa-1,2,2a^1-triazabenzo[cd]azulen-4-yl)-N-(1-methyl-1H-pyrazol-5-yl)pyridin-2-amine], for which it took 2.55 nM to reach half-maximal inhibition (IC50).

In the case of `CCC(C)CC1COc2cc(-c3ccnc(Nc4ccnn4C)n3)cc3nnc1n23` (single isomer, unassigned) [(R) I-52, N-(1-methyl-1H-pyrazol-5-yl)-4-(3-(2-methylbutyl)-3,4-dihydro-5-oxa-1,2,2a^1-triazaacenaphthylen-7-yl)pyrimidin-2-amine], the IC50 is less than 0.02 nM.

`Cn1nccc1Nc1cc(-c2cc3n4c(nnc4c2)C(Cc2ccc(Cl)cc2)CO3)ccn1` (single isomer, unassigned) [(R) I-55, 4-(3-(4-chlorobenzyl)-3,4-dihydro-5-oxa-1,2,2a^1-triazaacenaphthylen-7-yl)-N-(1-methyl-1H-pyrazol-5-yl)pyridin-2-amine] came in with an IC50 of less than 0.02 nM.

In the case of `Cn1nccc1Nc1cc(-c2cc3n4c(nnc4c2)C(Cc2ccccc2Cl)CCO3)ccn1` (single isomer, unassigned) [(R) I-60, 4-(9-(2-chlorobenzyl)-8,9-dihydro-7H-6-oxa-1,2,2a^1-triazabenzo[cd]azulen-4-yl)-N-(1-methyl-1H-pyrazol-5-yl)pyridin-2-amine], half-maximal inhibition (IC50) was put at 2.55 nM.

The compound `CCCC1COc2cc(-c3ccnc(Nc4ccnn4C)n3)cc3nnc1n23` (single isomer, unassigned) [(R) I-101, N-(1-methyl-1H-pyrazol-5-yl)-4-(3-propyl-3,4-dihydro-5-oxa-1,2,2a^1-triazaacenaphthylen-7-yl)pyrimidin-2-amine] came in with an IC50 of 0.038 nM.

On to `Cn1nccc1Nc1cc(-c2cc3n4c(nnc4c2)[C@@H](c2ccccc2)CN3)ccn1` (single isomer, unassigned) [(S) I-4, N-(1-methyl-1H-pyrazol-5-yl)-4-(3-phenyl-4,5-dihydro-3H-1,2,2a^1,5-tetraazaacenaphthylen-7-yl)pyridin-2-amine], for which the IC50 is less than 0.02 nM.

Turning to `CCC(C)CC1COc2cc(-c3ccnc(Nc4ccnn4C)n3)cc3nnc1n23` (single isomer, unassigned) [(S) I-52, N-(1-methyl-1H-pyrazol-5-yl)-4-(3-(2-methylbutyl)-3,4-dihydro-5-oxa-1,2,2a^1-triazaacenaphthylen-7-yl)pyrimidin-2-amine], the IC50 was found to be 93.4 nM.

Regarding `Cn1nccc1Nc1cc(-c2cc3n4c(nnc4c2)C(Cc2ccc(Cl)cc2)CO3)ccn1` (single isomer, unassigned) [(S) I-55, 4-(3-(4-chlorobenzyl)-3,4-dihydro-5-oxa-1,2,2a^1-triazaacenaphthylen-7-yl)-N-(1-methyl-1H-pyrazol-5-yl)pyridin-2-amine], the IC50 amounted to 12.5 nM.

For `Cn1nccc1Nc1cc(-c2cc3n4c(nnc4c2)C(Cc2ccccc2Cl)CCO3)ccn1` (single isomer, unassigned) [(S) I-60, 4-(9-(2-chlorobenzyl)-8,9-dihydro-7H-6-oxa-1,2,2a^1-triazabenzo[cd]azulen-4-yl)-N-(1-methyl-1H-pyrazol-5-yl)pyridin-2-amine], the IC50 was less than 0.02 nM.

`CCCC1COc2cc(-c3ccnc(Nc4ccnn4C)n3)cc3nnc1n23` (single isomer, unassigned) [(S) I-101, N-(1-methyl-1H-pyrazol-5-yl)-4-(3-propyl-3,4-dihydro-5-oxa-1,2,2a^1-triazaacenaphthylen-7-yl)pyrimidin-2-amine] returned a half-inhibitory concentration (IC50) of 19.5 nM.

`Cn1nccc1Nc1nccc(-c2cc3n4c(nnc4c2)[C@H](c2ccccc2)CN3)n1` [(R) I-1, N-(1-methyl-1H-pyrazol-5-yl)-4-(3-phenyl-4,5-dihydro-3H-1,2,2a^1,5-tetraazaacenaphthylen-7-yl)pyrimidin-2-amine] returned an IC50 of 179 nM.

On to `Cn1nccc1Nc1nccc(-c2cc3n4c(nnc4c2)[C@H](Cc2ccccc2)CN3)n1` [(R) I-2, (R)-4-(3-benzyl-4,5-dihydro-3H-1,2,2a^1,5-tetraazaacenaphthylen-7-yl)-N-(1-methyl-1H-pyrazol-5-yl)pyrimidin-2-amine], for which the IC50 was 0.38 nM.

The compound `Cn1nccc1Nc1nccc(-c2cc3n4c(nnc4c2)[C@H](Cc2ccc(Cl)cc2)CN3)n1` [(R) I-5, 4-(3-(4-chlorobenzyl)-4,5-dihydro-3H-1,2,2a^1,5-tetraazaacenaphthylen-7-yl)-N-(1-methyl-1H-pyrazol-5-yl)pyrimidin-2-amine] registered an IC50 of 0.408 nM.

`Cn1nccc1Nc1cc(-c2cc3n4c(nnc4c2)[C@H](Cc2ccccc2)CN3)ccn1` [(R) I-7, 4-(3-benzyl-4,5-dihydro-3H-1,2,2a^1,5-tetraazaacenaphthylen-7-yl)-N-(1-methyl-1H-pyrazol-5-yl)pyridin-2-amine] showed an IC50 of 0.707 nM.

Regarding `Cn1nccc1Nc1cc(-c2cc3n4c(ncc4c2)[C@H](Cc2ccc(Cl)cc2)CN3)ccn1` [(R) I-8, 4-(3-(4-chlorobenzyl)-4,5-dihydro-3H-1,2,2a^1,5-tetraazaacenaphthylen-7-yl)-N-(1-methyl-1H-pyrazol-5-yl)pyridin-2-amine], the half-inhibitory concentration (IC50) is 1.55 nM.

In the case of `CN1C[C@@H](Cc2ccccc2)c2nnc3cc(-c4ccnc(Nc5ccnn5C)n4)cc1n23` [(R) I-9, 4-(3-benzyl-5-methyl-4,5-dihydro-3H-1,2,2a^1,5-tetraazaacenaphthylen-7-yl)-N-(1-methyl-1H-pyrazol-5-yl)pyrimidin-2-amine], half-maximal inhibition (IC50) was put at 5.04 nM.

Turning to `CC(C)C[C@@H]1CNc2cc(-c3ccnc(Nc4ccnn4C)n3)cc3nnc1n23` [(R) I-10, 4-(3-isobutyl-4,5-dihydro-3H-1,2,2a^1,5-tetraazaacenaphthylen-7-yl)-N-(1-methyl-1H-pyrazol-5-yl)pyrimidin-2-amine], the IC50 came out at 2.75 nM.

`COc1ccc(C[C@@H]2CNc3cc(-c4ccnc(Nc5ccnn5C)n4)cc4nnc2n34)cc1` [(R) I-11, 4-(3-(4-methoxybenzyl)-4,5-dihydro-3H-1,2,2a^1,5-tetraazaacenaphthylen-7-yl)-N-(1-methyl-1H-pyrazol-5-yl)pyrimidin-2-amine] registered an IC50 of 0.514 nM.

The compound `COc1ccc(C[C@@H]2CNc3cc(-c4ccnc(Nc5ccnn5C)n4)cc4nnc2n34)cc1F` [(R) I-12, 4-(3-(3-fluoro-4-methoxybenzyl)-4,5-dihydro-3H-1,2,2a^1,5-tetraazaacenaphthylen-7-yl)-N-(1-methyl-1H-pyrazol-5-yl)pyrimidin-2-amine] showed a half-inhibitory concentration (IC50) of 0.311 nM.

For `Cn1nccc1Nc1nccc(-c2cc3n4c(nnc4c2)[C@H](Cc2ccc(Cl)c(F)c2)CN3)n1` [(R) I-14, 4-(3-(4-chloro-3-fluorobenzyl)-4,5-dihydro-3H-1,2,2a^1,5-tetraazaacenaphthylen-7-yl)-N-(1-methyl-1H-pyrazol-5-yl)pyrimidin-2-amine], 0.0441 nM corresponded to half-maximal inhibition (IC50).

`Cn1nccc1Nc1nccc(-c2cc3n4c(nnc4c2)[C@@H](Cc2ccccc2)CO3)n1` [(R) I-15, 4-(3-benzyl-3,4-dihydro-5-oxa-1,2,2a^1-triazaacenaphthylen-7-yl)-N-(1-methyl-1H-pyrazol-5-yl)pyrimidin-2-amine] registered an IC50 of 0.02 nM.

`COc1ccc(C[C@@H]2CN(C)c3cc(-c4ccnc(Nc5ccnn5C)c4)cc4nnc2n34)cc1` [(R) I-18, 4-(3-(4-methoxybenzyl)-5-methyl-4,5-dihydro-3H-1,2,2a^1,5-tetraazaacenaphthylen-7-yl)-N-(1-methyl-1H-pyrazol-5-yl)pyridin-2-amine] registered an IC50 of 0.036 nM.

With `CC(C)C[C@@H]1CN(C)c2cc(-c3ccnc(Nc4ccnn4C)c3)cc3nnc1n23` [(R) I-20, 4-(3-isobutyl-5-methyl-4,5-dihydro-3H-1,2,2a^1,5-tetraazaacenaphthylen-7-yl)-N-(1-methyl-1H-pyrazol-5-yl)pyridin-2-amine], half-maximal inhibition (IC50) was put at 48.7 nM.

As for `Cn1nccc1Nc1nccc(-c2cc3n4c(nnc4c2)[C@H](Cc2ccc(F)cc2)CN3)n1` [(R) I-21, 4-(3-(4-fluorobenzyl)-4,5-dihydro-3H-1,2,2a^1,5-tetraazaacenaphthylen-7-yl)-N-(1-methyl-1H-pyrazol-5-yl)pyrimidin-2-amine], 0.731 nM corresponded to half-maximal inhibition (IC50).

With `CN1C(=O)C[C@@H](Cc2ccc(Cl)cc2)c2nnc3cc(-c4ccnc(Nc5ccnn5C)n4)cc1n23` [(R) I-22, 9-(4-chlorobenzyl)-6-methyl-4-(2-((1-methyl-1H-pyrazol-5-yl)amino)pyrimidin-4-yl)-8,9-dihydro-1,2,2a^1,6-tetraazabenzo[cd]azulen-7(6H)-one], the 50% inhibitory concentration (IC50) amounted to 88.2 nM.

The compound `COc1ccc(C[C@@H]2CNc3cc(-c4ccnc(Nc5ccnn5C)n4)cc4nnc2n34)cn1` [(R) I-24, 4-(3-((6-methoxypyridin-3-yl)methyl)-4,5-dihydro-3H-1,2,2a^1,5-tetraazaacenaphthylen-7-yl)-N-(1-methyl-1H-pyrazol-5-yl)pyrimidin-2-amine] showed an IC50 of 1.85 nM.

Consider `Cn1nccc1Nc1nccc(-c2cc3n4c(nnc4c2)[C@H](COCc2ccccc2)CCO3)n1` [(R) I-29, 4-(9-((benzyloxy)methyl)-8,9-dihydro-7H-6-oxa-1,2,2a^1-triazabenzo[cd]azulen-4-yl)-N-(1-methyl-1H-pyrazol-5-yl)pyrimidin-2-amine], for which the IC50 was 0.109 nM.

`CN1C[C@@H](Cc2ccc(F)cc2)c2nnc3cc(-c4ccnc(Nc5ccnn5C)n4)cc1n23` [(R) I-31, 4-(3-(4-fluorobenzyl)-5-methyl-4,5-dihydro-3H-1,2,2a^1,5-tetraazaacenaphthylen-7-yl)-N-(1-methyl-1H-pyrazol-5-yl)pyrimidin-2-amine] came in with an IC50 of 1.35 nM.
